Measurements published in US20140080810A1 (Exelixis, Inc., priority 2010, published 2014).

Target: mTOR/GbL/Raptor (mTORC1) (Homo sapiens, UniProt P42345)
Test: mTOR/GbL/Raptor (mTORC1) ELISA Assay
Type: biochemical
Details: 4EBP1 used as substrate for mTOR/GbL/raptor kinase; read-out: PI3K biochemical IC50 values mTOR
Experimental: The measurement of mTORC1 enzyme activity was performed in an ELISA assay format following the phosphorylation of 4E-BP1 protein. All experiments were performed in the 384-well format. Generally, 0.5 μL DMSO containing varying concentrations of the test Compound was mixed with 15 μL enzyme solution. Kinase reactions were initiated with the addition of 15 μL of substrates-containing solution. The assay conditions were as follows; 0.2 nM mTORC1, 10 μM ATP and 50 nM NHis-tagged 4E-BPI in 20 mM Hepes, pH 7.2, 1 mM DTT, 50 mM NaCl, 10 mM MnCl2, 0.02 mg/mL BSA, 0.01% CHAPS, 50 mM β-glycerophosphate. Following an incubation of 120 minutes at ambient temperature, 20 μL of the reaction volume was transferred to a Ni-Chelate-coated 384-well plate. The binding step of the 4E-BP1 protein proceeded for 60 minutes, followed by washing 4 times each with 50 μL of Tris-buffered saline solution (TBS). Anti-phospho-4E-BP1 rabbit-IgG (20 μL, 1:5000) in 5% BSA-TBST (0.2% Tween-20 in TBS) was added and further incubated for 60 minutes. Incubation with a secondary HRP-tagged anti-IgG was similarly performed after washing off the primary antibody (4 washes of 50 μL). Following the final wash step with TBST, 20 μL of SuperSignal ELISA Femto (Pierce Biotechnology) was added and the luminescence measured using an EnVision plate reader.

| SMILES | IC50 [nM] |
| --- | --- |
| Cc1nc2ncc(-c3ccc4c(c3)CN(c3nc(CN(C)C)nc5c3CC(C)(C)CC5)CCO4)cc2[nH]1 [Compound 693] | 6 |
| Cc1nc2cc(-c3ccc4c(c3)CN(c3nc(CN(C)C)nc(C)c3C(C)C)CCO4)cnc2[nH]1 [Compound 694] | 16 |
| COc1ccc2c(N3CCOc4ccc(-c5cnc6nc(C)[nH]c6c5)cc4C3)nc(CN(C)C)nc2c1 [Compound 696] | 381 |
| CCNc1nc2ccc(-c3ccc4c(c3)CN(c3ccnc5cc(F)ccc35)CCO4)cc2[nH]1 [Compound 698] | 120 |
| CCNc1nc2ccc(-c3ccc4c(c3)CN(c3ncnc(NCC)c3C)CCO4)cc2[nH]1 [Compound 699] | 252 |
